Measured values as given in patent US20250051319A1 (AUGUSTINE THERAPEUTICS, priority 2021, published 2025).

molecular target: catalytic domain 2 (CD2) of HDAC6 (Homo sapiens (Human), UniProt Q9UBN7); test: Cellular target engagement assay - NanoBRET; format: cell-based; details: NanoLuc-HDAC6(CD2) in HEK293T cells, 2 hours, read-out: IC50 (HDAC6(CD2) interaction)
Method: NanoBRET target engagement was performed against the catalytic domain 2 (CD2) of HDAC6, with minor modifications of kit manufacturer protocol (Promega). Expression of exogenous NanoLuc-HDAC6(CD2) fusion and in HEK293T was achieved following transient transfection with FuGENE HD Transfection Reagent (Promega). The intracellular target engagement assay on HDAC6(CD2) was performed in a 384-well plate format with 8,000 cells per well and a tracer concentration of 0.125 μM or 0.600 μM for HDAC6(CD2). Compounds (dissolved in 100% DMSO) or DMSO (vehicle) were added either manually by diluting them in culture medium at 8× final assay concentration and then adding 5 μL to assay plate or in an automated way by adding […] compound to 5 μL OptiMEM without phenol red (Gibco) using the Echo650 (Labcyte). Tracer solution was added to the cells before seeding 35 μL cell/tracer mixture in the assay plate. The final reaction volume was 40 μL, final DMSO concentration was 1.4% (manual compound addition) or 1.25% (automated compound addition). Assay plates were incubated at 37° C. in a humidified atmosphere containing 5% C02 for 2 hours. The NanoBRET Nano-glo Substrate/Inhibitor was prepared by diluting NanoBRET Nano-Glo Substrate (1:332) and Extracellular Inhibitor (1:1000) in assay medium (Promega). […] BRET ratios were calculated from acceptor/donor signal ratio (mBRET=acceptor/donor*1000) and normalized for each plate. Percentage inhibition was calculated by setting the mBRET obtained with cells without tracer to 100%, while the mBRET obtained with uninhibited cells with tracer was set to 0%. IC50-values were calculated from the percentage inhibition with the log(inhibitor) vs. response—Variable slope (four parameters) nonlinear regression in GraphPad Prism software.

Chain of catalytic domain 2 (CD2) of HDAC6 (Q9UBN7 482-800): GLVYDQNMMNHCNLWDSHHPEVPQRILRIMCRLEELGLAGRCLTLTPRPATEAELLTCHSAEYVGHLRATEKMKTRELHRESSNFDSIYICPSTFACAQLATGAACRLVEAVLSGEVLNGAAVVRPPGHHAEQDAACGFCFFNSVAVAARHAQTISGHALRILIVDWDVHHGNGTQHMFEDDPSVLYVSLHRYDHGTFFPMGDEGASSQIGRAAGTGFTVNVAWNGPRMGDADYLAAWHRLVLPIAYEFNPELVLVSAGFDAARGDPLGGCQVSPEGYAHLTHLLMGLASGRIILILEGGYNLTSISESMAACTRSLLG

Row | IC50 | SMILES
1 | 0.1 to 0.5 µM | CC(=O)NCCc1ccc(C(=O)CSc2nc3nc(C)ccc3o2)s1 [Compound 104, N-(2-(5-(2-((5-methyloxazolo[4,5-b]pyridin-2-yl)thio)acetyl)thiophen-2-yl)ethyl)acetamide]
2 | 1 to 10 µM | O=C(CO)NCc1ccc(C(=O)CSc2nc3cc(C(F)(F)F)ccc3o2)s1 [Compound 105, 2-hydroxy-N-((5-(2-((5-(trifluoromethyl)benzo[d]oxazol-2-yl)thio)acetyl)thiophen-2-yl)methyl)acetamide]
3 | ≤ 0.1 µM | Cc1nc(SCC(=O)c2ccc(CNC(=O)CO)s2)c2cc(C3CC3)ccc2n1 [Compound 106, N-((5-(2-((6-cyclopropyl-2-methylquinazolin-4-yl)thio)acetyl)thiophen-2-yl)methyl)-2-hydroxyacetamide]
4 | 0.1 to 0.5 µM | Cc1cc2nc(C(F)(F)F)nc(SCC(=O)c3ccc(CNC(=O)CO)s3)n2n1 [Compound 107, 2-hydroxy-N-((5-(2-((7-methyl-2-(trifluoromethyl)pyrazolo[1,5-a][1,3,5]triazin-4-yl)thio)acetyl)thiophen-2-yl)methyl)acetamide]
5 | 0.1 to 0.5 µM | Cc1nc(SCC(=O)c2ccc(CNC(=O)C3CC3(F)F)s2)c2cccnc2n1 (stereo not shown) [Compound 110, 2,2-difluoro-N-((5-(2-((2-methylpyrido[2,3-d]pyrimidin-4-yl)thio)acetyl)thiophen-2-yl)methyl)cyclopropane-1-carboxamide]
6 | 0.1 to 0.5 µM | Cn1cc2c(SCC(=O)c3ccc(CNC(=O)C4CC4(F)F)s3)nc(C(F)(F)F)nc2n1 (stereo not shown) [Compound 111, 2,2-difluoro-N-((5-(2-((2-methyl-6-(trifluoromethyl)-2H-pyrazolo[3,4-d]pyrimidin-4-yl)thio)acetyl)thiophen-2-yl)methyl)cyclopropane-1-carboxamide]
7 | ≤ 0.1 µM | O=C(CO)NCc1ccc(C(=O)CSc2nc(C(F)(F)F)nc3cc(C4CC4)nn23)s1 [Compound 112, N-((5-(2-((7-cyclopropyl-2-(trifluoromethyl)pyrazolo[1,5-a][1,3,5]triazin-4-yl)thio)acetyl)thiophen-2-yl)methyl)-2-hydroxyacetamide]
8 | 0.1 to 0.5 µM | Cc1nc(SCC(=O)c2ccc(CNC(=O)C3CC3(F)F)s2)c2cc(OC(F)(F)F)ccc2n1 (stereo not shown) [Compound 120, 2,2-difluoro-N-((5-(2-((2-methyl-6-(trifluoromethoxy)quinazolin-4-yl)thio)acetyl)thiophen-2-yl)methyl)cyclopropane-1-carboxamide]
9 | ≤ 0.1 µM | COc1cc2c(SCC(=O)c3ccc(CNC(=O)CO)s3)nc(C)nc2cn1 [Compound 121, 2-hydroxy-N-((5-(2-((6-methoxy-2-methylpyrido[3,4-d]pyrimidin-4-yl)thio)acetyl)thiophen-2-yl)methyl)acetamide]
10 | ≤ 0.1 µM | O=C(CSc1nc(C(F)(F)F)nc2ncccc12)c1ccc(CNS(=O)(=O)C2CC2)s1 [Compound 122, N-((5-(2-((2-(trifluoromethyl)pyrido[2,3-d]pyrimidin-4-yl)thio)acetyl)thiophen-2-yl)methyl)cyclopropanesulfonamide]
11 | ≤ 0.1 µM | O=C(CSc1nc(C(F)(F)F)nc2ncccc12)c1ccc(CNS(=O)(=O)CC(F)(F)F)s1 [Compound 123, 2,2,2-trifluoro-N-((5-(2-((2-(trifluoromethyl)pyrido[2,3-d]pyrimidin-4-yl)thio)acetyl)thiophen-2-yl)methyl)ethane-1-sulfonamide]
12 | ≤ 0.1 µM | CCS(=O)(=O)NCc1ccc(C(=O)CSc2nc(C(F)(F)F)nc3ncccc23)s1 [Compound 127, N-((5-(2-((2-(trifluoromethyl)pyrido[2,3-d]pyrimidin-4-yl)thio)acetyl)thiophen-2-yl)methyl)ethanesulfonamide]
13 | ≤ 0.1 µM | CN(Cc1ccc(C(=O)CSc2nc(C(F)(F)F)nc3ncccc23)s1)C(=O)CO [Compound 131, 2-hydroxy-N-methyl-N-((5-(2-((2-(trifluoromethyl)pyrido[2,3-d]pyrimidin-4-yl)thio)acetyl)thiophen-2-yl)methyl)acetamide]
